According to US8946381B2, “Compositions and uses thereof for the treatment of wounds” (Phylogica Limited, priority 2006, dated 2015):
“Also recorded” adds a separate entry of the source.

How the values were obtained:
[1] = test system: HaCaT keratinocytes; test: MTT colorimetric proliferation assay, keratinocytes; format: cell-based; settings: 100 nm, 1 μM or 10 μM, 24, 48 or 72 hours
Procedure: (§1) Cultures of keratinocytes (HaCaT cells) or fibroblasts were cultured in a microwell plate the presence of a peptide analog comprising the amino acid sequence set forth in SEQ ID NO: 104 at a concentration of 100 nm, 1 μM or 10 μM. Following an incubation period 24 hours, 48 hours, or 72 hours, cells were incubated in the presence of MTT for a sufficient time for a mitochondrial dehydrogenase enzyme from viable cells to cleave the tetrazolium rings of the pale yellow MTT and form dark blue formazan crystals. Cells were then solubilized and the level of […] crystals determined using a microtitre plate reader at 492 nm.

[2] = test system: full-thickness burn wound; test: full-thickness burn wound model in mice, gross morphology and re-epithelialisation; format: in vivo, C57/B16 mice
Procedure: 8 week old C57/B16 mice were purchased from the Animal Resource Center, Murdoch University, Western Australia and used for all experiments. All experiments were approved by the necessary institutional animal ethics committees and were performed in accordance with the National Health and Medical Research Council (NHMRC) Australian Code of Practice for the Care and Use of Animals for Scientific Purposes.
(§2) A full-thickness burn wound was generated in a murine subject using a modified protocol based on a model previously described (Bruen et al., J Surg Res, 120: 12-20, 2004). Briefly, mice (n=34) were anesthetised (xylazine (10 mg/kg) and ketamine (100 mg/kg)) and subsequently given a full-thickness 10 mm diameter burn by contact with a brass rod (65 g) heated to 95° C. and applied for 9 seconds. 10 control animals were sacrificed post-burn, and histology confirmed all burns were full-thickness. The remaining animals (n=24) were re-hydrated and given analgesics subcutaneously immediately post-burn. The wounds were then dressed using a Tegapore™ membrane dressing (3M Healthcare Ltd) and either phosphate buffered saline (PBS) or PBS containing 20 μM peptide were instilled into the Tegapore™ and administered topically. The mice were then wrapped with a secondary absorbent dressing with minimal pressure so as not to constrict breathing and to allow free movement of the animal after recovery. Ten minutes post-injury, dressings were removed and animals allowed to recover from anesthesia in their cages with feed and water provided ad libitum.
Wounds were harvested on post-injury days 1, 3, 7 and 11 (n=3 for each time-point for both treated and control groups). Each wound was bisected along the cranial-caudal axis and one half of the tissue fixed in 4% paraformaldehyde solution and the other half stored as frozen tissue. Haematoxylin and Eosin stained sections were used to determine the quality of wound healing.
Progress of re-epithelialisation was quantitated by measuring distance between leading epithelial edges using an eye-piece graticule on histological slides. Difference between treated and control wounds was analysed using standard two-tail t-TEST for two-samples assuming unequal variance. p<0.05 is defined as the level of statistical significance.

[3] = test system: apoptosing epidermal cells surrounding the burn injury; test: TUNEL assay on burn wound tissue sections; format: in vivo, C57/B16 mice; settings: one day after burning
Procedure: as §2, with “Ten minutes post-injury, dressings were removed and animals allowed to recover from anesthesia in their cages with feed and water provided ad libitum.” left out
Tissue sections were labelled using TUNEL (Tdt-mediated dUTP Nick End Labelling) assay as previously described 13. […] Intensity of TUNEL staining was quantitated using Image J software (available from The National Institutes of Health, USA). Intensity of staining of individual nuclei were measured and normalised against the background. […]

[4] = test system: fibroblast cells; test: MTT colorimetric proliferation assay, fibroblasts; format: cell-based; settings: 100 nm, 1 μM or 10 μM, 24, 48 or 72 hours
Procedure: as §1

H-rerrsssqiGGsrisqyaGrrrqrrkkrG-NH2 [SEQ ID NO: 104]
cellular proliferation (MTT) vs untreated cells [1]: increased cellular proliferation rates; also recorded: enhanced and/or induced proliferation | gross morphology of wound ([2]; day 7 post-burn): Early reepithelialization is present and separation of the eschar evident | gap without epidermis (not re-epithelialized) ([2]; day 7 post-burn, 20 μM peptide in PBS topical): 2 mm | re-epithelialization of wound ([2]; day 11 post-burn, 20 μM peptide in PBS topical): re-epithelialized by day 11; also recorded: all the treated wounds are covered; also recorded: completely re-epithelialized | eschar diameter ([2]; day 11 post-burn, 20 μM peptide in PBS topically via Tegapore dressing for ten minutes): < 2 mm | scarring (de novo hair follicle morphogenesis) ([2]; day 11 post-burn, histology): scarring has not occurred | wound size between leading epidermal edges ([2]; within 24 hours post-injury, 20 μM peptide in PBS topical): 10 mm | TUNEL staining intensity vs control ([3]; 500 μm from the wound edge): marked difference in intensity | TUNEL positive staining in epidermis ([3]; 1500 μm from the wound edge): complete lack of positive staining | cellular proliferation (MTT) [4]: did not stimulate proliferation
